The target of one test is DGKζ (Homo sapiens (Human), UniProt Q13574). The experiment in a line: Biochemical DGK IC50 assay, DGKζ ADP-Glo assay. Conditions: 0.5 nM enzyme, 140 μM ATP, 80 μM DAG; read-out: DGKζ ADP-Glo assay IC50. The method, boiled down: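 Full-length human DGKζ, His-TEV tagged and purified from baculovirus-infected Sf9 cells, assayed by ADP-Glo with DAG/PS lipid micelle substrate prepared in 25 mM HEPES pH 7.0 with octyl glucoside. Final compound concentrations spanned 1.55–10000 nM or 23.3–150000 nM.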
Sequence of DGKζ (Q13574 other isoform, or with tags, fused parts or gaps): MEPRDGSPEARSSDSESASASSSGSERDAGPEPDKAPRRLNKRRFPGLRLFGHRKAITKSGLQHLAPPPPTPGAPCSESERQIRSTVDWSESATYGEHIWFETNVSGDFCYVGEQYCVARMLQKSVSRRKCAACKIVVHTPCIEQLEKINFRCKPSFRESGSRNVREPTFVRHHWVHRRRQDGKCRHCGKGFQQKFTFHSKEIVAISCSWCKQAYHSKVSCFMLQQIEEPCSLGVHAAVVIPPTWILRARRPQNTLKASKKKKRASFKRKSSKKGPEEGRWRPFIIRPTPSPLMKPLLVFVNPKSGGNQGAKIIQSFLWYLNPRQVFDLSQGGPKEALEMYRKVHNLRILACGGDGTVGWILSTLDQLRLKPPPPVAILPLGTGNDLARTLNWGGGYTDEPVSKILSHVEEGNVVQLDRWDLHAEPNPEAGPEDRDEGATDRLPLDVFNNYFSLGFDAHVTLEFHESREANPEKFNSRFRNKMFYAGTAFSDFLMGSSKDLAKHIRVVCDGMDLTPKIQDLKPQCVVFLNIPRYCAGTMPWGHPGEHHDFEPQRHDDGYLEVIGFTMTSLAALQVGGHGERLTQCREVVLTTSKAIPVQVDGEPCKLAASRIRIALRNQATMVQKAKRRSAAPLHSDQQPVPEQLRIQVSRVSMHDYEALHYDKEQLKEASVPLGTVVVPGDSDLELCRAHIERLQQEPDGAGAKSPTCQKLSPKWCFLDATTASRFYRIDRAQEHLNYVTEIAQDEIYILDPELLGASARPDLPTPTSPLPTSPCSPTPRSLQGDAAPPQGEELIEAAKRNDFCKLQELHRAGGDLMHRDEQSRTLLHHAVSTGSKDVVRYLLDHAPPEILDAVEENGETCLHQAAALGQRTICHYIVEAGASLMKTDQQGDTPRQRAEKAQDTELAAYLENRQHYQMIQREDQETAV
On the technique in general: ADP-Glo first removes unused ATP, then detects ADP through luciferase.

The next test concerns the target DGKα (Homo sapiens (Human), UniProt P23743). In words: Biochemical DGK IC50 assay, DGKα ADP-Glo assay. The conditions noted are these: 7.5 nM enzyme, 140 μM ATP, 80 μM DAG. The method, boiled down: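 ADP-Glo read-out with full-length DGKα on DAG/PS lipid micelle substrate in 25 mM HEPES pH 7.0, 0.5 mM EDTA, 160 mM octyl β-D-glucopyranoside. Compound final concentrations spanned 1.55˜10000 nM or 23.3˜150000 nM.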

The structures appear in SMILES notation. Bounds are passed on as bounds.

Sequence of DGKα (P23743 whole entry): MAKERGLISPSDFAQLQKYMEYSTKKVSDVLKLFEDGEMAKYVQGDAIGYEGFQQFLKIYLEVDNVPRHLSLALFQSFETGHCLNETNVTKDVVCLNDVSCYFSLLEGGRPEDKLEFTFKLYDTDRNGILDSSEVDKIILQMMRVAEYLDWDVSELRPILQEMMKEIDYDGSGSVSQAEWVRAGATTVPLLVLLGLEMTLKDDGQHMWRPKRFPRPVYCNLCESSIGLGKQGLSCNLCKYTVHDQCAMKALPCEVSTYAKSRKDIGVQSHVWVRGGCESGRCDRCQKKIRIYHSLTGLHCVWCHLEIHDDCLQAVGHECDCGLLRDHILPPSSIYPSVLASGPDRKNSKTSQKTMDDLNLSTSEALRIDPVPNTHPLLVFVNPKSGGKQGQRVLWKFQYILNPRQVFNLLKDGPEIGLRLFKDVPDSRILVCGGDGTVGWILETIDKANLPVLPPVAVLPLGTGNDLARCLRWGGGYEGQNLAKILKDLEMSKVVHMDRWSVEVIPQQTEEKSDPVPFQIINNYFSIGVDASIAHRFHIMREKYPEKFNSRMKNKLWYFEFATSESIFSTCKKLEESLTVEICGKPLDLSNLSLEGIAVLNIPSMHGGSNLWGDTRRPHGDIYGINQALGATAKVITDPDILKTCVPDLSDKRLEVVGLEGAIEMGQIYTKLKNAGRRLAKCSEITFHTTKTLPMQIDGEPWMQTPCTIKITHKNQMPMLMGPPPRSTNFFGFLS

For orientation: IC50 means the midpoint of a concentration-inhibition curve. Regarding `CC[C@H]1CN(C(C)c2nc3ccccc3s2)[C@H](CC)CN1c1cc(=O)n(C)c2cn(CC#N)nc12` (stereo partly drawn) [Compound A52, 2-(7-((2S,5R)-4-(1-(benzo[d]thiazol-2-yl)ethyl)-2,5-diethylpiperazin-1-yl)-4-methyl-5-oxo-4,5-dihydro-2H-pyrazolo[4,3-b]pyridin-2-yl)acetonitrile], the IC50 turned out to be 72 nM at DGKζ and 31 nM against DGKα.

As to `CC[C@H]1CN(C(c2ccc(F)cc2)c2ccc(F)cc2OC)[C@H](CC)CN1c1cc(=O)n(C)c2cn(CC#N)nc12` (stereo partly drawn) [Compound A53], the results for the concentration for half-maximal inhibition (IC50) on DGKζ and against DGKα were 7.8 nM and 1200 nM, respectively.

In the case of `CC[C@H]1CN(C(C)c2cnc3ccccc3n2)[C@H](CC)CN1c1cc(=O)n(C)c2cn(CC#N)nc12` (stereo partly drawn) [Compound A55], the 50% inhibitory concentration (IC50) at DGKζ came to 9 nM; on DGKα it was 22 nM.

Consider `CC[C@H]1CN(C(C)c2cnc3ccccc3c2)[C@H](CC)CN1c1cc(=O)n(C)c2cn(CC#N)nc12` (stereo partly drawn) [Compound A56], for which the concentration for half-maximal inhibition (IC50) at DGKζ was 27 nM; at DGKα, 560 nM.

On to `CC[C@H]1CN(C(C)c2ccc3ccccc3n2)[C@H](CC)CN1c1cc(=O)n(C)c2cn(CC#N)nc12` (stereo partly drawn) [Compound A57], for which the IC50 on DGKζ was found to be 50 nM; against DGKα, 114 nM.

As for `CC[C@H]1CN(C(C)c2cc3ccccc3cn2)[C@H](CC)CN1c1cc(=O)n(C)c2cn(CC#N)nc12` (stereo partly drawn) [Compound A58], the IC50 at DGKζ was determined as 2.8 nM; against DGKα it was 7.3 nM.

As to `CC[C@H]1CN(C(C)c2ccc3ncccc3c2)[C@H](CC)CN1c1cc(=O)n(C)c2cn(CC#N)nc12` (stereo partly drawn) [Compound A60], the half-maximal inhibitory concentration (IC50) on DGKζ turned out to be 17 nM; at DGKα it was 125 nM.

Take `CC[C@H]1CN(C(C)c2ccc3cccnc3c2)[C@H](CC)CN1c1cc(=O)n(C)c2cn(CC#N)nc12` (stereo partly drawn) [Compound A61]: the values for the IC50 on DGKζ and at DGKα were 8.6 nM and 177 nM, respectively.

In the case of `CC[C@H]1CN(C(C)c2ccc3ccncc3c2)[C@H](CC)CN1c1cc(=O)n(C)c2cn(CC#N)nc12` (stereo partly drawn) [Compound A62, 2-(7-((2S,5R)-2,5-diethyl-4-(1-(isoquinolin-7-yl)ethyl)piperazin-1-yl)-4-methyl-5-oxo-4,5-dihydro-2H-pyrazolo[4,3-b]pyridin-2-yl)acetonitrile], the IC50 on DGKζ came to 48 nM; on DGKα it was 40 nM.

On to `CC[C@H]1CN(C(C)c2ccc3cccnc3n2)[C@H](CC)CN1c1cc(=O)n(C)c2cn(CC#N)nc12` (stereo partly drawn) [Compound A63, 2-(7-((2S,5R)-4-(1-(1,8-naphthyridin-2-yl)ethyl)-2,5-diethylpiperazin-1-yl)-4-methyl-5-oxo-4,5-dihydro-2H-pyrazolo[4,3-b]pyridin-2-yl)acetonitrile], for which the IC50 at DGKζ turned out to be 43 nM; against DGKα, 83 nM.

As to `CC[C@H]1CN(C(C)c2ccc3ncn(C)c3c2)[C@H](CC)CN1c1cc(=O)n(C)c2cn(CC#N)nc12` (stereo partly drawn) [Compound A64], the IC50 at DGKζ stood at 230 nM; at DGKα, 2800 nM.

As to `CC[C@H]1CN(C(C)c2cccc3c2OC(F)(F)O3)[C@H](CC)CN1c1cc(=O)n(C)c2cn(CC#N)nc12` (stereo partly drawn) [Compound A66], the results for the 50% inhibitory concentration (IC50) on DGKζ and against DGKα were 409 nM and 9840 nM, respectively.

In the case of `CC[C@H]1CN(C(C)c2ccc(F)cc2)[C@H](CC)CN1c1cc(=O)n(C)c2cn(CC#N)nc12` (stereo partly drawn) [Compound A67], the IC50 was found to be 130 nM on DGKζ and 10 nM on DGKα.

Consider `CC[C@@H]1CN(c2cc(=O)n(C)c3cn(CC#N)nc23)[C@@H](CC)CN1Cc1ccc(F)cc1` [Compound A70], for which the IC50 worked out at 640 nM on DGKζ and 38 nM at DGKα.

As for `CC[C@H]1CN(C(C)c2ccc(C(F)(F)F)cc2F)[C@H](CC)CN1c1cc(=O)n(C)c2cn(CC#N)nc12` (stereo partly drawn) [Compound A73, 2-(7-((2S,5R)-2,5-diethyl-4-(1-(2-fluoro-4-(trifluoromethyl)phenyl)ethyl)piperazin-1-yl)-4-methyl-5-oxo-4,5-dihydro-2H-pyrazolo[4,3-b]pyridin-2-yl)acetonitrile], the IC50 on DGKζ and against DGKα was 630 nM in each case.

On to `CC[C@H]1CN(C(C)c2ccc(F)cn2)[C@H](CC)CN1c1cc(=O)n(C)c2cn(CC#N)nc12` (stereo partly drawn) [Compound A74], for which the half-maximal inhibitory concentration (IC50) at DGKζ stood at 830 nM; against DGKα, 3.8 nM.

Regarding `CC[C@@H]1CN(c2cc(=O)n(C)c3cn(CC#N)nc23)[C@@H](CC)CN1Cc1ccc(OC(F)(F)F)cc1` [Compound A77], the figures for the IC50 at DGKζ and against DGKα were 600 nM and 9.2 nM, respectively.

Take `CC[C@H]1CN(C(C)c2ccc(C(F)(F)F)c(OC)c2)[C@H](CC)CN1c1cc(=O)n(C)c2cn(CC#N)nc12` (stereo partly drawn) [Compound A78]: the half-inhibitory concentration (IC50) on DGKζ amounted to 640 nM; against DGKα, 2410 nM.

In the case of `CC[C@H]1CN(C(C)c2ccc(F)cc2COC)[C@H](CC)CN1c1cc(=O)n(C)c2cn(CC#N)nc12` (stereo partly drawn) [Compound A79, 2-(7-((2S,5R)-2,5-diethyl-4-(1-(4-fluoro-2-(methoxymethyl)phenyl)ethyl)piperazin-1-yl)-4-methyl-5-oxo-4,5-dihydro-2H-pyrazolo[4,3-b]pyridin-2-yl)acetonitrile], the half-maximal inhibitory concentration (IC50) on DGKζ came to 115 nM; against DGKα it was 2480 nM.

For `CC[C@H]1CN(C(C)c2ccccc2OC(F)(F)F)[C@H](CC)CN1c1cc(=O)n(C)c2cn(CC#N)nc12` (stereo partly drawn) [Compound A80], the IC50 at DGKζ is 663 nM; against DGKα it was > 10000 nM.

Turning to `CC[C@H]1CN(C(C)c2ccc(OC(C)C)nc2)[C@H](CC)CN1c1cc(=O)n(C)c2cn(CC#N)nc12` (stereo partly drawn) [Compound A81], the values for the IC50 on DGKζ and on DGKα were 60 nM and 461 nM, respectively.

In the case of `CC[C@H]1CN(C(C)c2ccc(F)c(OC)c2)[C@H](CC)CN1c1cc(=O)n(C)c2cn(CC#N)nc12` (stereo partly drawn) [Compound A82], the values for the concentration for half-maximal inhibition (IC50) at DGKζ and against DGKα were 90 nM and 1020 nM, respectively.

Turning to `CC[C@H]1CN(C(C)c2c(F)cccc2F)[C@H](CC)CN1c1cc(=O)n(C)c2cn(CC#N)nc12` (stereo partly drawn) [Compound A83], the values for the IC50 at DGKζ and against DGKα were 170 nM and 81 nM, respectively.

In the case of `CC[C@H]1CN(C(C)c2ccc(F)cc2C)[C@H](CC)CN1c1cc(=O)n(C)c2cn(CC#N)nc12` (stereo partly drawn) [Compound A84, 2-(7-((2S,5R)-2,5-diethyl-4-(1-(4-fluoro-2-methylphenyl)ethyl)piperazin-1-yl)-4-methyl-5-oxo-4,5-dihydro-2H-pyrazolo[4,3-b]pyridin-2-yl)acetonitrile], the half-maximal inhibitory concentration (IC50) on DGKζ was 128 nM; against DGKα, 2890 nM.

Regarding `CC[C@H]1CN(C(C)c2ccc(F)cc2OCCOC)[C@H](CC)CN1c1cc(=O)n(C)c2cn(CC#N)nc12` (stereo partly drawn) [Compound A85], the IC50 turned out to be 1180 nM at DGKζ and 5280 nM on DGKα.

For `CC[C@H]1CN(C(C)c2ccncc2)[C@H](CC)CN1c1cc(=O)n(C)c2cn(CC#N)nc12` (stereo partly drawn) [Compound A86], the IC50 came out at 1940 nM at DGKζ and 22 nM against DGKα.

For `CC[C@H]1CN(C(C)c2c(F)cncc2F)[C@H](CC)CN1c1cc(=O)n(C)c2cn(CC#N)nc12` (stereo partly drawn) [Compound A87], the half-inhibitory concentration (IC50) was determined as 211 nM on DGKζ and 114 nM against DGKα.

As for `CC[C@H]1CN(C(C)c2cnccn2)[C@H](CC)CN1c1cc(=O)n(C)c2cn(CC#N)nc12` (stereo partly drawn) [Compound A88], the IC50 at DGKζ was 9440 nM; against DGKα, 118 nM.

Turning to `CC[C@H]1CN(C(C)c2ccccc2)[C@H](CC)CN1c1cc(=O)n(C)c2cn(CC#N)nc12` (stereo partly drawn) [Compound A89], the 50% inhibitory concentration (IC50) on DGKζ came out at 296 nM; against DGKα it was 4.3 nM.

For the compound `CC[C@H]1CN(C(C)c2ccccn2)[C@H](CC)CN1c1cc(=O)n(C)c2cn(CC#N)nc12` (stereo partly drawn) [Compound A90], the IC50 at DGKζ was 1900 nM; at DGKα it was 13 nM.

As to `CC[C@H]1CN(C(C)c2ccncc2OC)[C@H](CC)CN1c1cc(=O)n(C)c2cn(CC#N)nc12` (stereo partly drawn) [Compound A91], the IC50 at DGKζ was 533 nM; against DGKα, > 10000 nM.

Turning to `CC[C@H]1CN(C(C)c2ncccc2COC)[C@H](CC)CN1c1cc(=O)n(C)c2cn(CC#N)nc12` (stereo partly drawn) [Compound A93], the concentration for half-maximal inhibition (IC50) on DGKζ is 3660 nM; on DGKα, > 10000 nM.

For the compound `CC[C@H]1CN(C(C)c2c(OC)cc(F)cc2OC)[C@H](CC)CN1c1cc(=O)n(C)c2cn(CC#N)nc12` (stereo partly drawn) [Compound A94], the IC50 worked out at 98 nM on DGKζ and 9130 nM against DGKα.

Turning to `CC[C@H]1CN(C(C)c2ccc3nccnc3c2)[C@H](CC)CN1c1cc(=O)n(CCO)c2cn(CC#N)nc12` (stereo partly drawn) [Compound A95, 2-(7-((2S,5R)-2,5-diethyl-4-(1-(quinoxalin-6-yl)ethyl)piperazin-1-yl)-4-(2-hydroxyethyl)-5-oxo-4,5-dihydro-2H-pyrazolo[4,3-b]pyridin-2-yl)acetonitrile], the concentration for half-maximal inhibition (IC50) on DGKζ amounted to 53 nM; against DGKα it was 12200 nM.

With `CC[C@H]1CN(C(C)c2ccc3nccnc3c2)[C@H](CC)CN1c1cc(=O)n(CCOC)c2cn(CC#N)nc12` (stereo partly drawn) [Compound A96, 2-(7-((2S,5R)-2,5-diethyl-4-(1-(quinoxalin-6-yl)ethyl)piperazin-1-yl)-4-(2-methoxyethyl)-5-oxo-4,5-dihydro-2H-pyrazolo[4,3-b]pyridin-2-yl)acetonitrile], the figures for the IC50 at DGKζ and on DGKα were 255 nM and > 10000 nM, respectively.

With `CC[C@H]1CN(C(C)c2ccc3nccnc3c2)[C@H](C)CN1c1cc(=O)n(C)c2cn(CC#N)nc12` (stereo partly drawn) [Compound A98, 2-(7-((2S,5R)-2-ethyl-5-methyl-4-(1-(quinoxalin-6-yl)ethyl)piperazin-1-yl)-4-methyl-5-oxo-4,5-dihydro-2H-pyrazolo[4,3-b]pyridin-2-yl)acetonitrile], the figures for the concentration for half-maximal inhibition (IC50) at DGKζ and against DGKα were 410 nM and 27000 nM, respectively.

These data come from patent US20240270751A1, “Pyrazolopyridinone Compounds” (BeiGene Ltd., priority 2021, published 2024).
